Measurements: patent publication US20070161697A1, “Hydrazide type compounds and the use thereof in pharmaceutical compositions for the treatment of cardiovascular diseases” (priority 2004, published 2007)

Legend:
Type in all cases: in vivo
[1] = system: Wistar rats; test: Total cholesterol in plasma, rats on dietary regimen rich in fructose; settings: 50 mg/kg oral, 3 weeks of treatment
Procedure: Secondly, the activity of the compound CGP 02-01 was studied using a reference rat-fructose model. Groups of Wistar rats (n=12) were subjected for 3 weeks to a dietary regimen containing […] of fructose. Under these conditions, the rats develop a metabolic syndrome comprising hyperglycaemia, hyperinsulinaemia, hypercholesterolaemia and hypertriglyceridaemia. Groups of rats subsequently received by forced feeding 50 mg/kg of the compound CGP 02-01 dissolved in a 2% tween solution prepared in methylcellulose. The blood samples for the biochemical analyses were performed after 1, 2 and 3 weeks. Independent groups of rats wee treated under the same conditions with metformin hydrochloride at a dose of 50 mg/kg. The metformin served as a reference in this metabolic syndrome model. The circulating total cholesterol may be measured by enzymatic assay using the commercially available kit. This assay may for example use an enzymatic sequence of the cholesterol-esterase/cholesteroloxydase/chromogenic peroxidase type. In summary, the total esterified cholesterol is transformed into free cholesterol and fatty acid by the action of cholesterol esterase. The non-esterified cholesterol is subsequently measured by the formation of quinoeimine in the presence of cholesterol oxidase and peroxidise. The intensity of the quinoneimine coloration is proportional to the quantity of cholesterol present in the sample.

[2] = system: ApoE −/− mice; test: Total cholesterol in plasma, ApoE −/− mice on dietary regimen rich in cholesterol; settings: for Plasma total cholesterol level: untreated 7.27 ± 0.55
Description: (§1) Firstly, mice devoid of the coding gene for Apo lipoprotein E (ApoE −/−) have been used. These mice represent a model of choice of studying early atherosclerosis and development of a plaque rich in foamy macrophages. Male C57BL/6J mice homozygote for deletion of the ApoE gene were subjected to a normal dietary regimen until the age of eight weeks. These mice (n=8 per group) subsequently received ad libitum and for 12 weeks either a dietary regimen not enriched with cholesterol or fat, or an enriched regimen, containing 1.5 g/kg of cholesterol and 200 g/kg of fat of milk origin. The untreated mice underwent daily intraperitoneal injections of a solution containing DMSO at 10%. […] Following the blood sample for the biochemical analyses, the mice were killed.
The circulating total cholesterol may be measured by enzymatic assay using the commercially available kit. This assay may for example use an enzymatic sequence of the cholesterol-esterase/cholesteroloxydase/chromogenic peroxidase type. In summary, the total esterified cholesterol is transformed into free cholesterol and fatty acid by the action of cholesterol esterase. The non-esterified cholesterol is subsequently measured by the formation of quinoeimine in the presence of cholesterol oxidase and peroxidise. The intensity of the quinoneimine coloration is proportional to the quantity of cholesterol present in the sample.
When mice are subjected to a dietary regimen rich in cholesterol, the total cholesterol level decreases from a value of 7.27±0.55 g/L to a value of 6.86±0.65 g/L, i.e. a variation of 5.6%. This effect observed is dependent on the dose of CGP 02-01.

[3] = system: ApoE −/− mice; test: Circulating triglycerides, ApoE −/− mice on regimen rich in cholesterol and fat; settings: 1 mg/kg; 3 months
Description: Firstly, mice devoid of the coding gene for Apo lipoprotein E (ApoE −/−) have been used. These mice represent a model of choice of studying early atherosclerosis and development of a plaque rich in foamy macrophages. Male C57BL/6J mice homozygote for deletion of the ApoE gene were subjected to a normal dietary regimen until the age of eight weeks. These mice (n=8 per group) subsequently received ad libitum and for 12 weeks either a dietary regimen not enriched with cholesterol or fat, or an enriched regimen, containing 1.5 g/kg of cholesterol and 200 g/kg of fat of milk origin. The untreated mice underwent daily intraperitoneal injections of a solution containing DMSO at 10%. The treated mice received by intraperitoneal injection the same solution containing 2 or 20 μg (i.e. 0.1 mg/kg/day or 1 mg/kg/day) of the compound CGP 02-01. […]
Assay of serum triglycerides may be performed enzymatically using the commercially available kit. […] The glycerol 3 phosphate is subsequently transformed into dihydroxyacetone in generating oxygenated water (H202) which may be detected by formation of quinoneimine in the presence of parachlorophenol, amino-4-antipyrin and peroxidase. The intensity of the quinoneimine coloration is subsequently measured at 505 nm. This coloration is proportional to the quantity of triglycerides present in the sample.

[4] = system: ApoE −/− mice; test: Abdominal fatty mass, ApoE mice on regimen rich in cholesterol and fat; settings: 1 mg/kg, 3 months
Description: (§2) Firstly, mice devoid of the coding gene for Apo lipoprotein E (ApoE −/−) have been used. These mice represent a model of choice of studying early atherosclerosis and development of a plaque rich in foamy macrophages. Male C57BL/6J mice homozygote for deletion of the ApoE gene were subjected to a normal dietary regimen until the age of eight weeks. These mice (n=8 per group) subsequently received ad libitum and for 12 weeks either a dietary regimen not enriched with cholesterol or fat, or an enriched regimen, containing 1.5 g/kg of cholesterol and 200 g/kg of fat of milk origin. The untreated mice underwent daily intraperitoneal injections of a solution containing DMSO at 10%. The treated mice received by intraperitoneal injection the same solution containing 2 or 20 μg (i.e. 0.1 mg/kg/day or 1 mg/kg/day) of the compound CGP 02-01. Following the blood sample for the biochemical analyses, the mice were killed.
ApoE mice subjected to a dietary regimen rich in cholesterol and fat were killed after 3 months of treatment with the compound CGP 02-01 at doses of 0.1 mg/kg and 1 mg/kg. The abdominal fatty mass was recovered by dissection, dried and expressed as dry weight.

[5] = system: ApoE −/− mice; test: HDL level in plasma, ApoE −/− mice on regimen rich in cholesterol
Description: as §1
The plasma HDL level is measured by tried and trusted commercial methods which use high density lipoprotein separation reagents and by measurement of the cholesterol level associated with these high molecular weight lipoproteins (Biomérieux kit ref. 61533 for example).

[6] = system: ApoE negative mice; test: Weight gain / abdominal fatty mass in ApoE negative mice on normal regimen; settings: 20 μg per day for 41 days; normal dietary regimen; FIG. 2
Procedure: The mice were treated for 41 days at a dose of 20 μg of compound CGP02-01 per day. The control mice and the treated mice were fed with a normal dietary regimen without any cholesterol overload.

[7] = system: ApoE −/− mice; test: Insulin in plasma, ApoE −/− mice on regimen rich in cholesterol
Description: as §2
Assay of insulin in plasma may be performed by radioimmunological assay using commercially available kits comprising specific anti-insulin antibodies of mice or rats. One may for example use the rat/mouse ELISA kits, Linco research (ref. EZRMI-13K).

[8] = system: Wistar rats; test: Insulin in plasma, rats on dietary regimen rich in fructose; settings: 50 mg/kg oral
Procedure: Secondly, the activity of the compound CGP 02-01 was studied using a reference rat-fructose model. Groups of Wistar rats (n=12) were subjected for 3 weeks to a dietary regimen containing […] of fructose. […] Groups of rats subsequently received by forced feeding 50 mg/kg of the compound CGP 02-01 dissolved in a 2% tween solution prepared in methylcellulose. The blood samples for the biochemical analyses were performed after 1, 2 and 3 weeks. Independent groups of rats wee treated under the same conditions with metformin hydrochloride at a dose of 50 mg/kg. The metformin served as a reference in this metabolic syndrome model. Assay of insulin in plasma may be performed by radioimmunological assay using commercially available kits comprising specific anti-insulin antibodies of mice or rats. One may for example use the rat/mouse ELISA kits, Linco research (ref. EZRMI-13K).

## COc1cc(O)c(/C=N/NC(=O)c2cc3ccccc3s2)c(OC)c1 [CGP02-01, N′-[(1E)-(2-hydroxy-4,6-dimethoxyphenyl)methylene]-1-benzothiophene-2-carbohydrazide]
[1]
  Reduction in total cholesterol: 54.5%
[1]; control 0.79±0.05
  Plasma total cholesterol level: 0.36 ± 0.03 g/L
[2]; 0.4 mg/kg
  Plasma total cholesterol level: 8.08 ± 0.62 g/L
[2]; 1 mg/kg, 3 months
  Variation of total cholesterol level vs untreated: 5.6%
  Plasma total cholesterol level: 6.86 ± 0.65 g/L
[3]
  Variation of plasma triglyceride level, treated in relation to untreated mice: twice as great
[4]
  Reduction in abdominal fatty mass: 48.3%
[4]; control 760±231, p<0.01
  Abdominal fatty mass (dry weight): 393 ± 78 mg
[5]; 0.1 mg/kg, cholesterol-rich regimen, untreated 0.11 ± 0.05
  Plasma HDL level: 0.15 ± 0.06 g/L
[5]; 1 mg/kg, cholesterol-rich regimen, untreated 0.11 ± 0.05
  Plasma HDL level: 0.15 ± 0.05 g/L
[5]; regimen rich in cholesterol and fatty acid
  Variation of plasma HDL level: 38.2%
[5]; regimen rich in cholesterol and fatty acid, dose not stated, control 0.11±0.005
  Plasma HDL level: 0.15 ± 0.005 g/L
[6]
  Weight gain (abdominal fatty mass): reduction in weight gain
[7]; 0.1 or 1 mg/kg
  Variation of plasma insulin level: 18.8%
[7]; 0.1 or 1 mg/kg IP, 3 months, control 1.17±0.2, p<0.01
  Plasma insulin level: 0.95 ± 0.16 ng/mL
[8]
  Variation (reduction) of insulin level: 11.3%
[8]; 3 weeks, control 1.85±0.04
  Plasma insulin level: 1.64 ± 0.03 ng/mL
